pIC50: −log10 of the molar value. Values after ≈ are worked out from the molar mass of the structure shown.

The subject of one data set is L1210. The data set can be described thus: Cytotoxicity against mouse L1210 cells. It is filed as functional, cell-based.
Data set [1] is described as follows: In vivo cytotoxicity against mouse EAC cells at 40 ug/kg relative to control. Type of data set: functional, Ehrlich.
Data set [2] has as its system P388. Description: In vivo cytotoxicity against mouse P388 cells at 80 ug/kg relative to control. It is filed as functional.
Data set [3] concerns B16. The data set can be described thus: In vivo cytotoxicity against mouse B16 cells at 40 ug/kg relative to control. It is filed as functional.
Another data set relates to Colon 26. Description: In vivo cytotoxicity against mouse Colon 26 cells at 80 ug/kg relative to control. Type of data set: functional.
Data set [4] in a line: In vivo cytotoxicity against mouse LLC cells at 40 ug/kg relative to control. Type of data set: functional, Lewis lung carcinoma.
The nature of data set [5]: Inhibition of inosine-5'-monophosphate dehydrogenase.
A short description of data set [6]: Ichthyotoxicity against Carassius auratus. It is filed as organism-based. The conditions noted are these: in vivo.
In data set [7] the test system is P388. The data set can be described thus: In vivo cytotoxicity against mouse P388 cells relative to control. Type of data set: functional.
The next data set deals with M5076. Description: In vivo cytotoxicity against mouse M5076 cells relative to control. It is filed as functional.
Data set [8] in a line: In vivo cytotoxicity against mouse LLC cells relative to control. It is filed as functional, Lewis lung carcinoma.
The subject of data set [9] is B16. The data set can be described thus: In vivo cytotoxicity against mouse B16 cells relative to control. Type of data set: functional.
Data set [10] concerns P388. The data set can be described thus: Cytotoxicity against mouse P388 cells. Type of data set: functional, cell-based.
Data set [11] can be described thus: Molluscicidal activity against common snail. Type of data set: organism-based. The conditions noted are these: cornu aspersum, in vivo; read-out: LD50 (the source's name).

For orientation: IC50 means the concentration needed to halve the response being measured. The low end stands for greater potency in that assay, the high end for weaker potency in that assay. Turning to `C=C1C(O)CC(=O)C(C)/C=C(\C)C[C@@H](O)[C@]2(O)O[C@H](CC[C@H]2O)CC(O)CCC(O)C(CCCC)OC(=O)C(C)C(O)C2OC12` (stereo partly specified) [AMPHIDINOLIDE N], in the data set on L1210, the IC50 amounted to 0.05 ng/mL (≈ 0.0778 nM).
Broadly, the T/C is the result in the treated group divided by that in the control group, in per cent. On to `COCC(C(=O)O[C@@H]1C/C=C/C=C/C(=O)O[C@H]([C@@H](C)[C@@H](O)[C@@H](C)CC[C@@H](OC(=O)C(C)N(C)C)[C@H](C)[C@H](OC(C)=O)[C@H](C)/C=C/N(C)C=O)C/C=C/[C@H](OC)C[C@H](C)C/C=C(\C)[C@@H](OC)CC[C@@H](C)[C@@H](O)[C@@H]1C)N(C)C` (stereo partly specified) [APLYRONINE A], for which the T/C in data set [1] was 398%; with P388 [2], 545%; with B16 [3], 201%; in the data set with Colon 26, 255%; in [4], 556%.
The term pIC50 denotes the negative decadic logarithm of the IC50, by convention in mol/L. The compound `C#CC(O)/C=C/CCCCCCCCC/C=C\CCCCCCCCCCCC/C=C\CC#CC(=O)O` (stereo unspecified) gave a negative-log IC50 (pIC50) in data set [5] of 3.00.
Turning to `C=C(CCNC(=O)CC/C=C/C[C@H](CCCCCCC)OC)[C@@]12O[C@@H]1CC=C(C)C2=O` [MALYNGAMIDE H], the LC50 in data set [6] amounted to 25000 ng/mL (≈ 57900 nM).
As for `CC1=C(O)/C(=C/C(C)CCCC(C)/C=C/C=C(\C)CCCc2ccoc2)OC1=O` (stereo unspecified) [FASCICULATIN], in data set [5], the pIC50 was 3.00.
For the compound `COc1c(C)cc2c(c1O)[C@@H]1[C@@H]3[C@H]4SCC(=O)C(=O)OC[C@@H](c5c(O)c(OC)c(C)c(OC(C)=O)c54)N3[C@@H](O)[C@H](C2)N1C`, the T/C in the data set with P388 [7] is on record as 213%; in the data set with M5076, 210%; in [8], 0%; in the data set on B16 [9] it was 241%.
On to `COc1cc2c(cc1O)CCN[C@]21CS[C@@H]2c3c(OC(C)=O)c(C)c4c(c3[C@H](COC1=O)N1[C@@H]2[C@H]2c3c(cc(C)c(OC)c3O)C[C@@H]([C@@H]1O)N2C)OCO4` [TRABECTEDIN], for which the T/C was found to be 213% in the data set on P388 [7], 210% in the data set with M5076, 0% in data set [8] and 241% with B16 [9].
For the compound `COc1c(C)cc2c(c1O)[C@@H]1[C@@H]3[C@H]4SCC(N)C(=O)OC[C@@H](c5c(O)c(OC)c(C)c(OC(C)=O)c54)N3[C@@H](O)[C@H](C2)N1C` (stereo partly specified), the T/C is reported as 213% with P388 [7], 210% with M5076, 0% in [8] and 241% with B16 [9].
In the data set with P388 [10], `C[C@@H]1[C@@]2(CC[C@](C)(O)CO2)O[C@H]2C=C3[C@@H]4[C@@H](O)C[C@H]5Cc6nc7c(nc6C[C@]5(C)[C@H]4C[C@@H](O)[C@]3(C)[C@]21O)C[C@@H]1CC[C@@H]2[C@H](CC(=O)[C@]23C[C@@H]2O[C@@]4(CCC(C)(C)O4)[C@@H](C)[C@@H]2[C@]3(C)O)[C@@]1(C)C7` [RITTERAZINE A] displayed an IC50 of 0.018 ng/mL (≈ 0.0197 nM).
In turn, `O=C1NCCc2cc(Br)c(O)c(c2)Oc2ccc(cc2Br)[C@H](O)CNC(=O)/C(=N/O)Cc2cc(Br)c(O)c(c2)Oc2c(Br)cc(cc2Br)C/C1=N\O` [BASTADIN 8] gave a pIC50 in data set [5] of 3.00.
Compound `Oc1c(Oc2c(O)c(Br)c(Br)c(Br)c2Br)cc(Br)c(Br)c1Br` had a pIC50 in data set [5] of 3.00.
Turning to `CO/C(=C\C(=O)N(C)[C@@H](Cc1ccccc1)c1nccs1)C[C@H](C)C(Cl)(Cl)Cl` [BARBARAMIDE A], in data set [11], the LC50 was less than 100000 ng/mL.
Take `C/C=C\[C@H](C)[C@@H]1O[C@]1(C)[C@@H](O)[C@@H](C)C(=O)[C@@H](CO)[C@@H](O)CC(=O)CC`: 100 ng/mL (≈ 281 nM) corresponded to half-maximal inhibition in the data set with L1210 (IC50).

Values taken from ChEMBL document CHEMBL1159228, “The 1994 Japan-U.S. Seminar on Bioorganic Marine Chemistry, Meeting Report” (J Nat Prod, 1995).
